This passage reports cellular anti-proliferative activity, tumor growth inhibition and IC50 results from patent US20250145589A1, “PYRIDINE DERIVATIVE AND USE THEREOF” (SICHUAN HUIYU PHARMACEUTICAL CO., LTD., priority 2021, published 2025).

The subject of one assay is KRAS G12C mutation. As to conditions: at the cellular level; cited from earlier work.
Assay [1] concerns pancreatic cancer MIA-Paca2 cell subcutaneous xenograft tumor. Particulars: cited from earlier work.
The test system of assay [2] is MIA PaCa-2 cells (KRAS G12C mutant). Nature of the assay: MIA PaCa-2 cell anti-proliferation (CellTiter-Glo). The assay is classed as cell-based. As to conditions: Homo sapiens, 72 h; MIA Paca-2 cells, 3 days, Table 7; read-out: MIA PaCa-2 (IC50). A digest of the protocol: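 Viable-cell luminescence (CellTiter-Glo, ≥30 min at 25 °C) measured after a 3-day, 37 °C exposure to compounds at 9 points, 4-fold spaced, in DMEM containing 10% FBS plus 2.5% horse serum. IC50 derived versus no-inhibitor wells.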

Assay [3] has as its system NCI-H358-AMGR drug-resistant cell line. Nature of the assay: NCI-H358-AMGR drug-resistant cell proliferation inhibitory activity test. As to conditions: 72 h; NCI-H358-AMGR drug-resistant cells, 3 days incubation, CellTiter-Glo. The assay is classed as cell-based. The method, then: Test Example 6t Generation of NCI-H358-AMGR Drug-Resistant Cell Line
NCI-H358 cells were seeded and cultured at 50 to 70% confluence in six-well plate with RPMI-640 (10% FBS) medium at 37° C. with 5%4 CO2. AMG510 was added for induction at three starting concentrations of 1 nM, 10 nM and 50 nM, and the medium containing the same concentration of AMG510 was replaced every 3 days. Cells were passaged once they reached confluence. After every, two passages at a given concentration of drug, the concentration was increased in a 3-old increment until final concentrations of 1 μM for AMG510 was achieved.
(§1) NCI-H358-AMGR cells in logarithmic growth phase were collected and seeded into a clear-bottom 96-well plate at a density of 4×10^3 cells per well in 80 μL of medium, and then incubated overnight at 37° C. with 5% CO2. The compounds were serially diluted 5-fold in DMSO to obtain 8 concentrations, and then further diluted with RPMI-640) (10% FBS) cell culture medium to obtain the working solutions (5×), 20 μL of each working solution was added to the cell culture supernatant in each well, and the plate was further incubated for 3 days at 37° C. with 5% CO2. The plate was then equilibrated with CellTiter-Glo® reagent at room temperature (25° C.) for 10-30 minutes. After aspirating 50 μL of the medium, 50 μL of CellTiter-Glo®, reagent was added. The cells were thoroughly mixed with the CellTiter-Glo®, reagent using a microplate shaker for 2 minutes, and then incubated at room temperature for 10 minutes. The %-well plate was placed in a multi-mode microplate reader to record the luminescence values (RLU).
(§2) The inhibitory rate was calculated using the following formula: […]
Data were analyzed using GraphPad Prism for IC50 values (Note: The negative control refers to the group without inhibitor).

The target of the next assay is PI3Kα (Homo sapiens (Human), UniProt P42336). Nature of the assay: Inhibition of PI3Kα efficacy assay (ADP-Glo kinase assay). The assay is classed as biochemical. Particulars: read-out: PI3Kα inhibitory activity (IC50). The procedure, abridged: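 ADP-Glo luminescent detection of ADP from PI3Kα acting on PI substrate with ATP, 60 min at RT; compounds in 8-point five-fold serial dilution from 2 mM DMSO stock. IC50 from four-parameter variable-slope fit.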
PI3Kα, sequence (P42336 whole entry): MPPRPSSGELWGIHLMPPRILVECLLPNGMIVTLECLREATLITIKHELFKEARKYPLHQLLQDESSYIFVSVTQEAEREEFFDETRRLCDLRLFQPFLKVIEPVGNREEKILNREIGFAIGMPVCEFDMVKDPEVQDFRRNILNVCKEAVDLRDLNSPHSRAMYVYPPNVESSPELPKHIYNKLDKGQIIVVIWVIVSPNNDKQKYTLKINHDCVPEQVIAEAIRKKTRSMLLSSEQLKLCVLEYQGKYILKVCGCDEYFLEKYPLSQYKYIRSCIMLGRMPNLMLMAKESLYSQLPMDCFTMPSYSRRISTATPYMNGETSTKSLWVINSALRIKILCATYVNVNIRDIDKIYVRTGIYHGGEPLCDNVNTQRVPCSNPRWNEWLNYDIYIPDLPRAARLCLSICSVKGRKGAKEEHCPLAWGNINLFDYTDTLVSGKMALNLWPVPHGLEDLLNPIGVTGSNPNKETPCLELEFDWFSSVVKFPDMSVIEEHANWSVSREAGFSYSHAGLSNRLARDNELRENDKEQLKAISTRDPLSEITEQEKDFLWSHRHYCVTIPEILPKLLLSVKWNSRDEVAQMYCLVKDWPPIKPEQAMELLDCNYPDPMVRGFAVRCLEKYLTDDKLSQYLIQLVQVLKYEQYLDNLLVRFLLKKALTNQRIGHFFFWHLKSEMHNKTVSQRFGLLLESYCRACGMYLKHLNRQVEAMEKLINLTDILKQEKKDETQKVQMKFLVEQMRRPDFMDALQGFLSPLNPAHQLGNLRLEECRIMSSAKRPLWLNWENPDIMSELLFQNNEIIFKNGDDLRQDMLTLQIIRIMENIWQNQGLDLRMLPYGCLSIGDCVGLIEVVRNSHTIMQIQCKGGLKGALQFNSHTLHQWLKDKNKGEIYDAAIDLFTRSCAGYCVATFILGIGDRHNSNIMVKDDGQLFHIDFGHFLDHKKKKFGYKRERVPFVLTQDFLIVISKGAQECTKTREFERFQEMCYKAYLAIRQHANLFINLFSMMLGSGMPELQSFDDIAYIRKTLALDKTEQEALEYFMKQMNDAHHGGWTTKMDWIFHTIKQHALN
PI3Kα, sequence (P27986 whole entry partner): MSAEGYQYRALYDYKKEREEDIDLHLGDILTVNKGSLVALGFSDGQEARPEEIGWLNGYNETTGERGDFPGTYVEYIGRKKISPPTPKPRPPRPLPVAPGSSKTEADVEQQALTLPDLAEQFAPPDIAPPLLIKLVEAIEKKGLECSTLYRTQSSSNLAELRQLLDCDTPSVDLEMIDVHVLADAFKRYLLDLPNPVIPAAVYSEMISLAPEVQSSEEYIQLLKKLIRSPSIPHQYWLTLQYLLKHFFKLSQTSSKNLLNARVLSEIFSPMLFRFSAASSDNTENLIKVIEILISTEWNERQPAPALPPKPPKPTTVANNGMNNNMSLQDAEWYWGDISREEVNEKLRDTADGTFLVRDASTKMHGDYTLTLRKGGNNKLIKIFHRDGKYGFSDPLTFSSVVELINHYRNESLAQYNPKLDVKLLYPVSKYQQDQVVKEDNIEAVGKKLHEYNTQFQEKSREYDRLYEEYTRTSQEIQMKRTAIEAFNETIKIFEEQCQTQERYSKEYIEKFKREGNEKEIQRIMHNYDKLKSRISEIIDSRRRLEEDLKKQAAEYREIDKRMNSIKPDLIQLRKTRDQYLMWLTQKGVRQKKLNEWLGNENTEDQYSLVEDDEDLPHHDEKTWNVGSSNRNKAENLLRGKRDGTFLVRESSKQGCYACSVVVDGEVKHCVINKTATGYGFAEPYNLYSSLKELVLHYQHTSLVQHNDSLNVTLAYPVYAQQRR

A further assay addresses PI3Kδ (Homo sapiens (Human), UniProt O00329). Nature of the assay: Inhibition of PI3Kδ efficacy assay (ADP-Glo kinase assay). The assay is classed as biochemical. As to conditions: read-out: PI3Kδ inhibitory activity (IC50). A digest of the protocol:
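Luminescent ADP-Glo readout of PI3Kδ: after a 60 min RT reaction with PI/ATP substrate, ATP depletion (40 min) and ADP detection (40 min) steps followed. Compounds tested as eight five-fold serial dilutions; inhibition rates fitted to log(inhibitor) vs. response, variable slope, for IC50.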

A further assay has as its target KRAS^G12C-SOS1 (Homo sapiens (Human), UniProt P01116, G12C). Kind of assay: HTRF KRAS G12C/SOS1 binding assay. Particulars: Table 5. How it is done: Initially, a 2 mM stock solution of the test compound (dissolved in DMSO) was serially diluted in five-fold concentrations using DMSO to obtain eight working solutions 1 (200×). Subsequently, each of the eight working solutions 1 was further diluted in a 20-fold gradient by adding 5 μL into 95 μL of Diluent buffer, mixed completely with vortex mixer, resulting in eight working solutions 2 (10×). […] Subsequently, 5 μL of Anti-tag 1-Tb^3+ stock solution and 5 μL of Anti-tag2-XL665 were added to each well, mixed, and incubated at 4° C. for 3 hours. Remove the plate and read on an HTRF® compatible reader, with the excitation light wavelength set at 337 nm and readings recorded at 620 nm and 665 nm. The data results were presented as the ratio of the 665 nm signal value to the 620 nm signal value for each well, calculated as follows: […]. The inhibition rate was calculated using the following formula: […]
Data were analyzed using GraphPad Prism with log (inhibitor) vs. response-Variable Slope (four parameters) fitting calculations for IC50 values.

The subject of assay [4] is MIA PaCa-2-AMGR drug-resistant cell line. Kind of assay: MIA PaCa-2-AMGR drug-resistant cell proliferation inhibitory activity test. The assay is classed as cell-based. As to conditions: 72 h, MIA PaCa-2-AMGR drug-resistant cells, 3 days incubation, CellTiter-Glo. How it is done: Test Example 7: Generation of MIA PaCa-2-AMGR drug-resistant cell line
MIA PaCa-2 cells were seeded and cultured at 50 to 70% confluence in six-well plate with DMEM (10% FBS+2.5% horse serum) medium at 37° C. with 5% CO2. AMG510 was added for induction at three starting concentrations of 1 nM, 10 nM and 50 nM, and the medium containing the same concentration of AMG510 was replaced every 3 days. Cells were passaged once they reached confluence. After every two passages at a given concentration of drug, the concentration was increased in a 3-fold increment until final concentrations of 1 μM for AMG510 was achieved.
as §1, with “MIA PaCa-2-AMGR” for “NCI-H358-AMGR”, “DMEM” for “RPMI-640)”, “FBS+2.5% horse serum)” for “FBS)”, “CellTiter-Glo®” for “CellTiter-Glo®,”, “96-well” for “%-well”
as §2
Data were analyzed using GraphPad Prism for IC50 values (Note: The negative control refers to the group without inhibitor) The data were presented m Table 9

Assay [5] concerns NCI-H358 cells (KRAS G12C mutant). Nature of the assay: NCI-H358 cell proliferation inhibition (CellTiter-Glo). The assay is classed as cell-based. As to conditions: Homo sapiens, NCI-H358, 72 h; H358 cells (G12C mutation), 3 days, Table 6; read-out: NCI-H358 (IC50).

Each structure is given as a SMILES string. Read-outs that look alike come from different tables or passages of the source.

PI3Kδ, sequence (O00329 whole entry): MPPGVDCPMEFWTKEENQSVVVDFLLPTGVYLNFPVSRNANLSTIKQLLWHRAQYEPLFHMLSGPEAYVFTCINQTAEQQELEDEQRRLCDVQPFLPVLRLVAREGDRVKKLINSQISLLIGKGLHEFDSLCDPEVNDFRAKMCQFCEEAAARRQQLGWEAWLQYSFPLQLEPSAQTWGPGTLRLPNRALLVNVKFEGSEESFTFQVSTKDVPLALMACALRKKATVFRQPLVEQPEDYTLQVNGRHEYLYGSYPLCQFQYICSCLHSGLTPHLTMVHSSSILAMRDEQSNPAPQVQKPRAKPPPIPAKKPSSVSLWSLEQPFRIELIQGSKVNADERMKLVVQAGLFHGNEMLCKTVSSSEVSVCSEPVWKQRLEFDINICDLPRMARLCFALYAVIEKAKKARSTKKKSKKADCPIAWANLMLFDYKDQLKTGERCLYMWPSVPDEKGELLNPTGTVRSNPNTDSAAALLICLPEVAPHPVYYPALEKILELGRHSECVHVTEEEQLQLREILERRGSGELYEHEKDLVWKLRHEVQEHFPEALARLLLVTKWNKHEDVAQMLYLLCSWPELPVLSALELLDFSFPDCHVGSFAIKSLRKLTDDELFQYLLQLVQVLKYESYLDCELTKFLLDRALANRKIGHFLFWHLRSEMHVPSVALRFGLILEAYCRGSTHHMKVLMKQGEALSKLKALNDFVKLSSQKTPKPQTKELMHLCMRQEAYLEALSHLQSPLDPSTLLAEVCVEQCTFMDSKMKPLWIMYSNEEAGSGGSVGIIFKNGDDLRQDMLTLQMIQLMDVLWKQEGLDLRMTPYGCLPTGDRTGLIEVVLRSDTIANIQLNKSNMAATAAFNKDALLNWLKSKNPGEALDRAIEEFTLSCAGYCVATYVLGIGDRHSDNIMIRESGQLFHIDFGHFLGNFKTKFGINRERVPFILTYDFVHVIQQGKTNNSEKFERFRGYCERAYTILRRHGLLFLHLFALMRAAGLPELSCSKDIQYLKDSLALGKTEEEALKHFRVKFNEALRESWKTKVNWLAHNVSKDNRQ
PI3Kδ, sequence (P27986 whole entry partner): as the sequence (P27986 whole entry partner) above
KRAS^G12C-SOS1, sequence (P01116-2 other isoform, or with tags, fused parts or gaps G12C): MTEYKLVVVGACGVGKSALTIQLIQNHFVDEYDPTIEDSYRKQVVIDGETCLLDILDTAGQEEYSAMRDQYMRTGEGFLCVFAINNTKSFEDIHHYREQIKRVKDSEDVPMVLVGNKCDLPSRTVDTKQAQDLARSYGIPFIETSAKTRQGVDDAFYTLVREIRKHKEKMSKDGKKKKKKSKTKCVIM

Consider `C=CC(=O)N1CCN(c2ncnc3c(F)c(-c4c(O)cccc4F)c(Cl)cc23)CC1` [ARS-1620], for which the cellular anti-proliferative activity result in the assay on KRAS G12C mutation is recorded as “nM-level”. Moreover, the tumor growth inhibition entry in [1] was “effectively inhibit tumor growth”.

For the molecule `COc1ncc(-c2ccc3ncnc(N4CCN(C(=O)/C=C/C(C)=O)CC4)c3c2)cc1NS(=O)(=O)c1ccc(Cl)s1` [Example 38, (E)-5-chloro-N-(2-methoxy-5-(4-(4-(4-oxopent-2-enoyl)piperazin-1-yl)quinazolin-6-yl)pyridin-3-yl)thiophene-2-sulfonamide], the IC50 in assay [2] worked out at 59.8 nM; in assay [3], 51.1 nM; at PI3Kα (Table 1), 1.5 nM; on PI3Kδ (Table 1), 14.7 nM; at KRAS^G12C-SOS1 it was 807 nM; in assay [4], 216 nM.

With `COc1ncc(-c2ccc3ncnc(N4CC5CCC(C4)N5C(=O)/C=C/C(C)=O)c3c2)cc1NS(=O)(=O)c1ccc(F)cc1F` [Example 58, 2,4-difluoro-N-(2-methoxy-5-(4-(8-((E)-4-oxopent-2-enoyl)-3,8-diazabicyclo[3.2.1]octan-3-yl)quinazolin-6-yl)pyridin-3-yl)benzenesulfon-amide], the IC50 in assay [2] was determined as 26.2 nM; in [3] it was 100 nM; in assay [5], 18.1 nM; at PI3Kα (Table 2), 3.6 nM; on PI3Kδ (Table 2), 8.3 nM; on KRAS^G12C-SOS1 it was 278 nM.

`CC(=O)/C=C/C(=O)N1CCN(c2ncnc3ccc(-c4cnc(Cl)c(NS(=O)(=O)c5c(F)cccc5F)c4)cc23)CC1` [Example 84, (E)-N-(2-chloro-5-(4-(4-(4-oxopent-2-enoyl)piperazin-1-yl)quinazolin-6-yl)pyridin-3-yl)-2,6-difluorobenzenesulfonamide]: the IC50 in assay [2] is 245 nM; in assay [3] it was 639 nM; in [5], 13 nM; at PI3Kα (Table 2) it was 0.83 nM; at PI3Kδ (Table 2), 7.6 nM; on KRAS^G12C-SOS1 it was 268 nM.

With `COc1ncc(-c2ccc3ncnc(N4CCC5(CN(C(=O)/C=C/C(C)=O)C5)C4)c3c2)cc1NS(=O)(=O)c1c(F)cc(F)cc1F` [Example 97, (E)-2,4,6-trifluoro-N-(2-methoxy-5-(4-(2-(4-oxopent-2-enoyl)-2,6-diazaspiro[3.4]octan-6-yl)quinazolin-6-yl)pyridin-3-yl)benzenesulfonamide], the IC50 in [2] was 109 nM; in [5], 13.7 nM; on PI3Kα (Table 2), 1.4 nM; at PI3Kδ (Table 2), 14.1 nM; at KRAS^G12C-SOS1, 101 nM.

Consider `COc1ncc(-c2ccc3ncnc(N4CCN(C(=O)/C=C/C(C)=O)CC4)c3c2)cc1NS(=O)(=O)c1ccncc1F` [Example 103, (E)-3-fluoro-N-(2-methoxy-5-(4-(4-(4-oxopent-2-enoyl)piperazin-1-yl)quinazolin-6-yl)pyridin-3-yl)pyridine-4-sulfonamide], for which the IC50 amounted to 344 nM in [2]; 83 nM in assay [5]; 0.95 nM on PI3Kα (Table 2); 32.2 nM at PI3Kδ (Table 2); 203 nM at KRAS^G12C-SOS1.

Turning to `COc1ncc(-c2ccc3ncnc(N4CCN(C(=O)/C=C/C(C)=O)CC4)c3c2)cc1NS(=O)(=O)c1cc(Cl)cn1C` [Example 104, (E)-4-Chloro-N-(2-methoxy-5-(4-(4-(4-oxopent-2-enoyl)piperazin-1-yl)quinazoline-6-yl)pyridin-3-yl)-1-methyl-1H-pyrrole-2-sulfonamide], the IC50 in assay [2] was 139 nM; in assay [5], 74.2 nM; on PI3Kα (Table 2), 3.8 nM; on PI3Kδ (Table 2), 32.2 nM; at KRAS^G12C-SOS1, 169 nM.

Consider `COc1ncc(-c2ccc3ncnc(N4CCN(C(=O)/C=C/C(C)=O)CC4)c3n2)cc1NS(=O)(=O)c1ccc(F)cc1F` [Example 132, (E)-2,4-difluoro-N-(2-methoxy-5-(4-(4-(4-oxopent-2-enoyl)piperazin-1-yl)pyrido[3,2-d]pyrimidin-6-yl)pyridin-3-yl)benzenesulfonamide], for which the IC50 was 16.1 nM in [2]; 4 nM in assay [5]; 3.6 nM on PI3Kα (Table 3); 29.2 nM on PI3Kδ (Table 3); 318 nM at KRAS^G12C-SOS1.

With `COc1ncc(-c2ccc3ncnc(N4CCN(C(=O)/C=C/C(C)=O)CC4)c3n2)cc1NS(=O)(=O)c1ccccc1F` [Example 133, (E)-2-fluoro-N-(2-methoxy-5-(4-(4-(4-oxopent-2-enoyl)piperazin-1-yl)pyrido[3,2-d]pyrimidin-6-yl)pyridin-3-yl)benzenesulfonamide], the half-maximal inhibitory concentration (IC50) in assay [2] was determined as 12 nM; in [5], 4.1 nM; on PI3Kα (Table 3) it was 5.4 nM; on PI3Kδ (Table 3), 20.4 nM; on KRAS^G12C-SOS1, 251 nM.

As for `CC(=O)/C=C/C(=O)N1CCN(c2ncnc3ccc(-c4cnc(N(C)C)c(NS(=O)(=O)c5ccc(F)cc5F)c4)cc23)CC1` [Example 195, (E)-N-(2-(dimethylamino)-5-(4-(4-(4-oxopent-2-enoyl)piperazin-1-yl)quinazolin-6-yl)pyridin-3-yl)-2,4-difluorobenzenesulfonamide], the IC50 in assay [2] turned out to be 93.3 nM; in assay [3] it was 92.3 nM; in [5] it was 43.9 nM; on PI3Kα (Table 4), 2.4 nM; on PI3Kδ (Table 4), 13.5 nM; at KRAS^G12C-SOS1, 158 nM.
